The record followed here is patent US10662210B2, “Compositions and methods comprising osmium for the treatment of cancers” (Massachusetts Institute of Technology, priority 2014, dated 2020).

One series has as its system HMLER^tax CSC-enriched. Kind of series: Cytotoxicity against CSC-enriched breast cancer cells. In kind it is cell-based. To be noted: for HMLER^tax selectivity: CSC-enriched vs CSC-depleted. The source says:
(§1) Cancer relapse is strongly linked to the existence of CSCs. […] Conventional chemotherapy and radiotherapy are often ineffective against CSCs. Although current therapies effectively reduce tumor mass by destroying the bulk of cancer cells, they are unable to remove CSCs, which persist and generate new tumors, often of a far more aggressive nature. Therefore, in order to improve clinical outcomes, treatments must have the ability to kill the entirety of cancer cells, including CSCs. The osmium compound, described in Formula (I), wherein X^1, X^2, and X^3 were chloride ligands and the bidentate ligand was a 1,10-phenanthroline ligand, was able to kill breast cancer cells (HMLER) enriched with CSCs, 2.3-fold better than CSC-depleted breast cancer cells. […] The selectivity of the osmium compound can be seen in Table 2 as well as FIGS. 17A-B and 18.
(§2) The colorimetric MTT assay was used to determine the toxicity of the osmium complexes and cisplatin. Cells (2×10^3) were seeded in each well of a 96-well plate. After incubating the cells overnight, various concentrations of test compound (0.3-100 μM) were added and incubated for 72 h (total volume 200 μL). The test compounds were prepared as 10 mM solutions in DMSO and diluted using media. The final concentration of DMSO in each well was 0.5% and this amount was present in the untreated control as well. Cisplatin was prepared as a 5 mM solution in PBS and diluted further using media. After 72 h, the medium was removed, 200 μL of a 0.4 mg/mL solution of MTT in DMEM or RPMI was added, and the plate was incubated for an additional 1-2 h. The DMEM/MTT or RPMI/MTT mixture was aspirated and 200 μL of DMSO was added to dissolve the resulting purple formazan crystals. The absorbance of the solution wells was read at 550 nm. Absorbance values were normalized to DMSO-containing control wells and plotted as concentration of test compound versus % cell viability. IC50 values were interpolated from the resulting dose dependent curves. The reported IC50 values are the average from at least three independent experiments, each of which consisted of six replicates per concentration level.

In a further series the test system is HMLER CSC-depleted. Description: Cytotoxicity against CSC-depleted breast cancer cells. In kind it is cell-based.
From the text: as §1, §2

The nature of series [1]: Water-octanol partition coefficient (log P), shake-flask method with GF-AAS. To be noted: room temperature, 50 μM. The class given is physicochemical. As to the method: Those of ordinary skill in the art would be knowledgeable of methods of determining the water-octanol partition coefficient of compounds. For example, the log P of a compound may be obtained using the shake-flask method and graphite furnace atomic absorption spectroscopy (GF-AAS). Briefly, in the shake-flask method, octanol is pre-saturated with water by overnight incubation with shaking of a biphasic mixture of the two at room temperature. A portion of 0.5 mL water containing 50 μM of the given compound is incubated with the pre-saturated octanol (0.5 mL) in a 1.5 mL tube. The tube is shaken at room temperature for 3 hours. The two phases are separated by centrifugation and the osmium content (concentration) in each phase is determined by GFAAS. The log P is then calculated using the formula below: log P=log 10[(concentration of osmium in the octanol layer)/(concentration of osmium in the water layer)].
The log P values were obtained using the shake-flask method and graphite furnace atomic absorption spectroscopy (GF-AAS). Octanol used in this experiment was pre-saturated with water by overnight incubation with shaking of a biphasic mixture of the two at room temperature. A portion of 0.5 mL water containing 50 μM of the given compound was incubated with the pre-saturated octanol (0.5 mL) in a 1.5 mL tube. The tube was shaken at room temperature for 3 h. The two phases were separated by centrifugation and the osmium content (concentration) in each phase was determined by GFAAS. All the experiments were carried out in triplicate. The log P was then calculated using the formula below: Log P=log 10[(conc. of osmium in the octanol layer)/(conc. of osmium in the water layer)].

A further series deals with MRC-5 (lung normal). Description: Cytotoxicity MTT assay. In kind it is cell-based, human. To be noted: 72 h. The procedure:
(§3) The anti-proliferative properties of 1-4 against a panel of human cancer cell lines were assessed by the MTT [3-(4,5-dimethylthiazol-2-yl)-2,5-diphenyltetrazolium bromide] assay. Cisplatin was included as a control. The IC50 values, concentrations required to induce 50% viability, were derived from dose-response curves and are summarized in Table 1.
(§4) A549 lung adenocarcinoma, HeLa cervical cancer, and MRC5 normal human fetal lung fibroblast cell lines were maintained in Dulbecco's Modified Eagle's Medium (DMEM-low glucose) supplemented with 10% fetal bovine serum and 1% penicillin/streptomycin. The cisplatin-sensitive A2780 ovarian cancer and the cisplatin-resistant A2780/CP70 ovarian cancer cell lines were cultured in RPMI (glutamine free) media supplemented with 10% fetal bovine serum and 1% penicillin/streptomycin. All cells were grown at 310 K in a humidified atmosphere containing 5% CO2.
as §2

In a further series the test system is A2780/CP70 (ovarian). Description: Cytotoxicity MTT assay. In kind it is cell-based, human. To be noted: 72 h, cisplatin-resistant. As to the method: as §3, §4, §2
The next series relates to A549 (lung). Kind of series: Cytotoxicity MTT assay. The class given is cell-based, human. To be noted: 72 h. As to the method: as §3, §4, §2
A general note: Tetrazolium assays rely on reduction of a dye to a coloured formazan, in cell work by metabolically active cells.

For another series, the system named is HeLa (cervical). Description: Cytotoxicity MTT assay. The class given is cell-based, human. To be noted: 72 h. The procedure:
as §3, §4, §2

The test system of another series is A2780 (ovarian). Description: Cytotoxicity MTT assay. To be noted: MTT, 72 h. The class given is cell-based, human. As to the method: as §3, §4, §2
The subject of a further series is A2780 cells. Kind of series: Cytotoxicity MTT assay with pathway and cell death inhibitors. The class given is cell-based, human. To be noted: salubrinal 10 μM. The procedure: This finding led to the investigation of the possibility that 4 may induce endoplasmic reticulum (ER) stress. Co-administration of 4 and salubrinal (10 μM), a known ER stress inhibitor, reduced the cytotoxicity of 4 in A2780 cells. […] To further validate the ER as the main target for 4, the expression of proteins related to the unfolded protein response (UPR) was monitored. […] ER membrane expansion is widely associated with ER stress. With this fact in mind the ER size of A2780 cells upon incubation with 4 were examined using fluorescence microscopy. Relative to untreated controls (FIG. 3B), cells exposed to 4 (10 μM) for 4 h had 25.1% larger ER coverage (FIG. 3C). The ER size relative to the whole cell of the untreated controls was about 30% and the ER size relative to the whole cell of the treated samples was about 55%.
Having established the intracellular targets of 2 and 4, the role of p53, a cell cycle and apoptosis regulator, in the cellular responses evoked was investigated. […] Therefore, p53 played a fundamental role in coordinating the cellular response to 2-induced DNA damage. […] (FIG. 13). […] To relate p53 to potency, cytotoxicity studies were conducted in the presence of p53 inhibitors pifithrin-α and pifithrin-μ. (both 10 μM). […] The IC50 values of compound 2 in the absence and presence of p53 inhibitor pifithrin-μ after 72 hours incubation was about 2 μM and about 30 μM, respectively.
as §2
For specific pathway and cell death inhibitor assays, inhibitors of p53 (pifithrin-α, 10 μM and pifithrin-μ, 10 μM), ER stress (salubrinal, 10 μM), necrosis (IM-54, 10 μM), and autophagocytosis (chloroquine, 10 μM) were added to cells and incubated for 0-1 h prior to treatment with the test compounds.

Broadly, the IC50 is the concentration needed to halve the response being measured. A lower IC50 goes with inhibition by little substance. As to abamectin, in the series on HMLER^tax CSC-enriched, the 50% inhibitory concentration (IC50) came out at 0.64 µM and the “HMLER^tax selectivity” value amounted to 2.26. The compound further gave an IC50 in the series with HMLER CSC-depleted of 1.45 µM.
Turning to `CC1=C[N]2c3c4c(ccc3=C1C)=C(C)C(C)=C[N]4[Os]2(#[N])([Cl])([Cl])[Cl]` [Complex 3, OsN(3,4,7,8-tetramethyl-1,10-phenanthroline)Cl3], the “log P (water-octanol coefficient)” value in [1] is 1.54. Besides, the half-maximal inhibitory concentration (IC50) stood at 17.2 ± 2.16 µM in the series on MRC-5 (lung normal); 3.91 ± 0.26 µM with A2780/CP70 (ovarian); 14.9 ± 1.63 µM in the series with A549 (lung); 6.34 ± 0.52 µM in the series on HeLa (cervical); 7.97 ± 1.41 µM in the series with A2780 (ovarian).
Turning to `O=C1[O][Pt]2([NH][C@@H]3CCCC[C@H]3[NH]2)[O]C1=O` [oxaliplatin], in the series with HMLER^tax CSC-enriched, the IC50 was determined as 26.9 µM and the “HMLER^tax selectivity” value is 0.55. In the series on HMLER CSC-depleted, this compound showed an IC50 of 15 µM.
OsN(2,2′-bipyridine)Cl3 [Complex 1]: the “log P (water-octanol coefficient)” value in [1] is on record as 0.71. Further, the half-maximal inhibitory concentration (IC50) was 21.6 ± 4.85 µM in the series with MRC-5 (lung normal); 3.94 ± 1.75 µM with A2780/CP70 (ovarian); 6.11 ± 0.87 µM with A549 (lung); 9.24 ± 0.58 µM in the series on HeLa (cervical); 3.8 ± 0.21 µM in the series with A2780 (ovarian).
Take `CC[C@@H](C(=O)[C@@H](C)[C@@H](O)[C@H](C)[C@@H]1O[C@@H]([C@@H](CC)C(=O)O)CC[C@@H]1C)[C@H]1O[C@]2(C=C[C@@H](O)[C@]3(CC[C@@](C)([C@H]4CC[C@](O)(CC)[C@H](C)O4)O3)O2)[C@H](C)C[C@@H]1C` [salinomycin]: in the series on HMLER^tax CSC-enriched, the half-inhibitory concentration (IC50) was 0.058 µM and the “HMLER^tax selectivity” value came to 8.45. In addition, inhibition with HMLER CSC-depleted was half-maximal at 0.49 µM (IC50).
For `N.N.O=C([O-])C1(C(=O)[O-])CCC1.[Pt+2]` [carboplatin], in that order: 18.2 µM, 0.98 and 17.8 µM.
Regarding `N.N.[Cl][Pt][Cl]` [cisplatin, reference compound], the IC50 in the series with HMLER^tax CSC-enriched was 2.06 µM; in the series on MRC-5 (lung normal), 11.1 ± 1.33 µM; in the series on A2780/CP70 (ovarian), 10.3 ± 1.5 µM; in the series with A549 (lung), 3.59 ± 0.92 µM; with HeLa (cervical), 2.83 ± 0.06 µM; in the series with A2780 (ovarian), 1.41 ± 0.37 µM. Moreover, the IC50 in the series on HMLER CSC-depleted is 1.95 µM. In the series with HMLER^tax CSC-enriched, the “HMLER^tax selectivity” value was found to be 0.95. Besides, the “effect of salubrinal on toxicity” value in the series on A2780 cells is reported as “limited effect”.
As for `CC(=O)[O][Pt]([NH2])([Cl])([Cl])([NH]C1CCCCC1)[O]C(C)=O` [satraplatin], in the series with HMLER^tax CSC-enriched, the half-inhibitory concentration (IC50) was found to be 2.87 µM and the “HMLER^tax selectivity” value was determined as 0.43. Moreover, the half-maximal inhibitory concentration (IC50) in the series with HMLER CSC-depleted was 1.22 µM.
